Laboratory results reported in patent US7622472B2, “Combination of Src kinase inhibitors and chemotherapeutic agents for the treatment of proliferative diseases” (priority 2003, dated 2009).

Columns and labels:
[1] = tested on: PC3 human prostate carcinoma xenografts; assay: In vivo antitumor testing, PC3 human prostate carcinoma xenografts in nude mice; conditions: single agent compound 1, 10 mpk, orally, twice-a-day, 5-day-on, 2-day-off, 14 days
Excerpt: Tumors were propagated as subcutaneous transplants using tumor fragments obtained from donor mice.
For treatment of early-stage tumors, the animals were again pooled before distribution to the various treatment and control groups. For treatment of animals with advanced-stage disease, tumors were allowed to grow to the pre-determined size window (tumors outside the range were excluded) and animals were evenly distributed to various treatment and control groups. Treatment of each animal was based on individual body weight. Treated animals were checked daily for treatment related toxicity/mortality. Each group of animals was weighed before the initiation of treatment (Wt1) and then again following the last treatment dose (Wt2). The difference in body weight (Wt2−Wt1) provides a measure of treatment-related toxicity. Tumor response was determined by measurement of tumors with a caliper twice a week, until the tumors reach a predetermined “target” size of 1 gm. Tumor weights (mg) were estimated from the formula: Tumor weight=(length×width2)÷2 Antitumor activity was evaluated at the maximum tolerated dose (MTD) which is defined as the dose level immediately below which excessive toxicity (i.e. more than one death) occurred. […] When death occurs, the day of death was recorded.

[2] = tested on: Src family kinases (SFKs, including: Fyn, Yes, Yrk, Blk, Fgr, Hck, Lyn, and Frk subfamily members Frk/Rak and Iyk/Bsk); assay: Inhibition of Src family kinases (statement, no method); assay type: biochemical; conditions: competes with ATP for the ATP-binding site in the kinase domain

In the case of `Cc1nc(Nc2ncc(C(=O)Nc3c(C)cccc3Cl)s2)cc(N2CCN(CCO)CC2)n1` [Compound 1, ′N-(2-Chloro-6-methylphenyl)-2-[[6-[4-(2-hydroxyethyl)-1-piperazinyl]-2-methyl-4-pyrimidinyl]amino]-5-thiazolecarboxamide], the “growth delay (T-C)” value [1] is reported as 4.5 days, the “tumor growth inhibition (% T/C)” value [1] is reported as 58% and the “inhibition of Src family kinases” value [2] is reported as “potently inhibits”.
